# In PubChem BioAssay (NCI):
#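 Test compounds were applied to cells in 96-well plates for 48 hours at 5 doses. At the GI50, growth is halved. TGI: concentration producing complete growth inhibition.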
# Assays:
# Assay in all cases: NCI-60 cell line screen, 48 h
# 786-0 renal = tested on: 786-0 renal
# A498 renal = tested on: A498 renal
# A549 NSCLC = tested on: A549 NSCLC
# ACHN renal = tested on: ACHN renal
# BT-549 breast = tested on: BT-549 breast
# CAKI-1 renal = tested on: CAKI-1 renal
# CCRF-CEM leukemia = tested on: CCRF-CEM leukemia
# COLO 205 colon = tested on: COLO 205 colon
# DU-145 prostate = tested on: DU-145 prostate
# EKVX NSCLC = tested on: EKVX NSCLC
# HCC-2998 colon = tested on: HCC-2998 colon
# HCT-116 colon = tested on: HCT-116 colon
# HCT-15 colon = tested on: HCT-15 colon
# HL-60(TB) leukemia = tested on: HL-60(TB) leukemia
# HOP-62 NSCLC = tested on: HOP-62 NSCLC
# HOP-92 NSCLC = tested on: HOP-92 NSCLC
# HS 578T breast = tested on: HS 578T breast
# HT29 colon = tested on: HT29 colon
# IGROV1 ovarian = tested on: IGROV1 ovarian
# K-562 leukemia = tested on: K-562 leukemia
# KM12 colon = tested on: KM12 colon
# M14 melanoma = tested on: M14 melanoma
# MALME-3M melanoma = tested on: MALME-3M melanoma
# MCF7 breast = tested on: MCF7 breast
# MDA-MB-231 breast = tested on: MDA-MB-231 breast
# MDA-MB-435 = tested on: MDA-MB-435
# MOLT-4 leukemia = tested on: MOLT-4 leukemia
# NCI-H226 lung = tested on: NCI-H226 lung
compound,measurement,setting,value
COC(=O)c1cccc(NC2=C(Cl)C(=O)c3nc(C)ccc3C2=O)c1,GI50,786-0 renal,1.86 µM
same,TGI,786-0 renal,3.66 µM
same,GI50,A498 renal,12 µM
same,TGI,A498 renal,24.6 µM
same,GI50,A549 NSCLC,18.1 µM
same,TGI,A549 NSCLC,37.9 µM
same,GI50,ACHN renal,1.78 µM
same,TGI,ACHN renal,3.4 µM
same,GI50,BT-549 breast,1.68 µM
same,TGI,BT-549 breast,3.09 µM
same,GI50,CAKI-1 renal,1.71 µM
same,TGI,CAKI-1 renal,3.28 µM
same,GI50,CCRF-CEM leukemia,2.01 µM
same,TGI,CCRF-CEM leukemia,5.48 µM
same,GI50,COLO 205 colon,1.77 µM
same,TGI,COLO 205 colon,3.76 µM
same,GI50,DU-145 prostate,1.86 µM
same,TGI,DU-145 prostate,3.39 µM
same,GI50,EKVX NSCLC,1.77 µM
same,TGI,EKVX NSCLC,3.6 µM
same,GI50,HCC-2998 colon,2.21 µM
same,TGI,HCC-2998 colon,4.8 µM
same,GI50,HCT-116 colon,1.6 µM
same,TGI,HCT-116 colon,3.32 µM
same,GI50,HCT-15 colon,1.54 µM
same,TGI,HCT-15 colon,3.33 µM
same,GI50,HL-60(TB) leukemia,1.53 µM
same,TGI,HL-60(TB) leukemia,3.64 µM
same,GI50,HOP-62 NSCLC,15.1 µM
same,TGI,HOP-62 NSCLC,29.6 µM
same,GI50,HOP-92 NSCLC,1.92 µM
same,TGI,HOP-92 NSCLC,3.95 µM
same,GI50,HS 578T breast,2.46 µM
same,TGI,HS 578T breast,6.26 µM
same,GI50,HT29 colon,2.32 µM
same,TGI,HT29 colon,6.09 µM
same,GI50,IGROV1 ovarian,1.98 µM
same,TGI,IGROV1 ovarian,3.89 µM
same,GI50,K-562 leukemia,0.976 µM
same,TGI,K-562 leukemia,3.94 µM
same,GI50,KM12 colon,13.3 µM
same,TGI,KM12 colon,29.4 µM
same,GI50,M14 melanoma,1.84 µM
same,TGI,M14 melanoma,3.42 µM
same,GI50,MALME-3M melanoma,1.95 µM
same,TGI,MALME-3M melanoma,3.76 µM
same,GI50,MCF7 breast,1.89 µM
same,TGI,MCF7 breast,4.61 µM
same,GI50,MDA-MB-231 breast,2.15 µM
same,TGI,MDA-MB-231 breast,5.08 µM
same,GI50,MDA-MB-435,2.04 µM
same,TGI,MDA-MB-435,4.29 µM
same,GI50,MOLT-4 leukemia,2.53 µM
same,TGI,MOLT-4 leukemia,5.68 µM
same,GI50,NCI-H226 lung,2.02 µM
